{"source": "patent US11180499B2", "about": "“Phosphodiesterase inhibitors” (BOARD OF REGENTS OF THE UNIVERSITY OF NEBRASKA, priority 2018, dated 2021)", "key": {"WT mice": {"test_system": "WT mice", "assay": "Locomotor analysis (cocaine-induced hyperlocomotion, open field)", "assay_type": "in vivo, mouse", "conditions": "for Locomotor activity of compound alone: Compound 8 + saline", "experimental": "Locomotor analysis: WT mice (both gender, n=6-8) were divided into four groups receiving various treatments: (1) vehicle+saline; (2) vehicle+cocaine; (3) Compound 8+saline; and (4) Compound 8+cocaine. Cocaine was administered at 20 mg/kg (i.p.) and Compound 8 was used at two different doses 5 or 10 mg/kg (i.p.). Compound 8 was firstly injected into the mice and 30 min later followed with cocaine administration. To investigate the effects of Compound 8 on acute locomotor response, immediately following cocaine injection, mice were put into the open field apparatus (Truescan, Coulbourn instrument) to detect locomotor activity for 45 min. The TruScan photobeam activity system consists of a clear arena with infrared sensors located on a ring 3 cm above floor level. There are 16 beams spaced 1 inch apart on the sensor ring that are used to detect movements by mice. […] To investigate the effects of Compound 8 on locomotor sensitization, mice were repeatedly injected with Compound 8 and cocaine for 7 consecutive days and the locomotor responses were recorded every other day."}, "PDE4B1": {"biological_target": "T1, PDE4B1 (Homo sapiens, UniProt Q07343)", "T1 construct": "expressed in transfected cells; host or cells: HEK293", "T1 sequence (Q07343 whole entry)": "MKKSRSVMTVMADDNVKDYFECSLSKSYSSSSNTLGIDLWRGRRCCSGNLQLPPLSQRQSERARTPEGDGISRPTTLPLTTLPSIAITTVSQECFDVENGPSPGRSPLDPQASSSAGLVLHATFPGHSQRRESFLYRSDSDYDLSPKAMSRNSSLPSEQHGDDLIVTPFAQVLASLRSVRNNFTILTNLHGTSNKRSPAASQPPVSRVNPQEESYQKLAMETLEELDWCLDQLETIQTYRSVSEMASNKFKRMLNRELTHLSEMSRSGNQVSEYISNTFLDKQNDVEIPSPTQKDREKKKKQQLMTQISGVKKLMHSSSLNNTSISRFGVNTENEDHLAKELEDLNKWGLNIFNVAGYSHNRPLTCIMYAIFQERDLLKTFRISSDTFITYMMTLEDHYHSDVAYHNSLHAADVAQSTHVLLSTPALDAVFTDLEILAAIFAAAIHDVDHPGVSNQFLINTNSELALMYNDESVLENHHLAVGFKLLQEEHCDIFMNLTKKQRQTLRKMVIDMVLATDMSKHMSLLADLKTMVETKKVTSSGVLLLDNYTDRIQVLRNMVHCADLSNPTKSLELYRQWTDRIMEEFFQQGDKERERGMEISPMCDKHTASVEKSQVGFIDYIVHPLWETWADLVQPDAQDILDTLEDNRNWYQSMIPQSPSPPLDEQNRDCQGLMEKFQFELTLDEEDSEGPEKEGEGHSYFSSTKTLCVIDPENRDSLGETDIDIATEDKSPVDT", "assay": "Cell-based PDE4B assay (HEK293, PDE4B1 vector, CRE luciferase reporter, forskolin)", "conditions": "versus apremilast", "experimental": "Cells were incubated at 37° C. and 5% CO2 overnight. […] Cell based assays were performed in triplicate at each concentration."}, "[1]": {"test_system": "cocaine self-administered mice", "assay": "Cocaine self-administration (seeking and taking behavior)", "assay_type": "in vivo, mouse", "conditions": "i.p., 30 min before 2 h FR1 session", "experimental": "(a) Surgery procedure: WT mice (10-12 weeks, both genders) were implanted with permanently indwelling catheters (Plastics one) into the right jugular vein under a combination of ketamine hydrochloride ([…], i. p.) and xylazine ([…], i.p.) anesthesia. The catheter is tied to the vein with surgical silk and is passed subcutaneously to the back of the mouse where the catheter is affixed to a small plastic pedestal (26 G, Plastics One Company). After the surgery, the catheters were flushed daily with heparin (30 IU/mi) to avoid clotting. Mice were allowed at least 7 days of recovery in their home before the start of the experiments.\n(b) The establishment of cocaine self-administered mice: Mice were individually put into sound-mitigation cubicles (Coulbourne Instrument) for the training of self-administered cocaine (1.0 mg/kg/infusion). […] A timeout period of 15 seconds followed each drug injection. All responses were recorded automatically using a computer interface and Graphic State Notation 4 software (Coulbourne Instrument). Mice were trained to self-administer cocaine during one daily session under a fixed ratio 1 (FR1) schedule. […]\n(c) The effects of Compound 8 on cocaine-mediated seeking and taking behavior. […] The numbers of active nose-poke and cocaine infusions were recorded. […]"}, "PDE4B": {"biological_target": "T2, PDE4B (Homo sapiens, UniProt Q07343)", "T2 construct": "purchased BPS Bioscience, San Diego", "T2 sequence (Q07343 whole entry, canonical isoform)": "as the sequence (Q07343 whole entry) above", "assay": "In vitro PDE4 inhibition study, PDE4B (BPS Bioscience)", "assay_type": "binding", "experimental": "The IC50 values of Compound 8 on PDE4 isoforms were determined by BPS Bioscience, San Diego. In brief, coat proteins (PDE4 isoforms) were added into the plate in a volume of 50 μl (2-5 ng/μl) at 4° C. overnight. The next day, Compound 8 was added to the coated plate with varying concentrations followed by addition of the corresponding biotinylated binding partner. The reaction was incubated for 2 hours at room temperature. Binding assays were performed in duplicate at each concentration and the plates were read by using Synergy 2 BioTek plate reader. The luminescence data were analyzed using the Graphpad Prism. […] Data for a reference compounds or antibodies are included as a control for inhibition. “ND” indicates the compound was not tested."}}}
{"smiles": "O=C(c1cc2cccnc2n1-c1ccc(Cl)c(Cl)c1)N1CC(F)(F)C1", "note": "[Compound 8, (1-(3,4-dichlorophenyl)-1H-pyrrolo[2,3-b]pyridin-2-yl)(3,3-difluoroazetidin-1-yl)methanone]", "values": [{"measurement": "Cocaine-induced hyperlocomotion", "setting": "WT mice; 5 or 10 mg/kg i.p. 30 min before cocaine 20 mg/kg i.p.", "result": "inhibited the cocaine induce hyperlocomotion"}, {"measurement": "Locomotor activity of compound alone", "setting": "WT mice", "result": "without any increase alone"}, {"measurement": "Locomotor activity of compound alone", "setting": "WT mice; listed as compound 8", "result": "without any increase by itself"}, {"measurement": "EC50 for PDE4B inhibition relative to apremilast", "setting": "PDE4B1", "result": "ten-fold lower EC50"}, {"measurement": "Cocaine-mediated seeking and taking behavior (active nose-pokes, cocaine infusions)", "setting": "[1]", "result": "significantly decreased"}, {"measurement": "IC50", "setting": "PDE4B", "result": 140, "unit": "nM"}]}
